Measurements taken from PMC10815131, “Novel Pitolisant-Derived Sulfonyl Compounds for Alzheimer Disease” (International Journal of Molecular Sciences, 2024).
Where two headings read alike, the source gives them in different places.

Tests used:
AChE = target: T1, AChE (Rattus norvegicus, UniProt P37136); test: biochemical; conditions: for inhibition at 1 µM: tested at 1 μM, rat hippocampal homogenate, read-out: AChE Inhibition (%) ± SEM
T1 sequence (P37136 32-614): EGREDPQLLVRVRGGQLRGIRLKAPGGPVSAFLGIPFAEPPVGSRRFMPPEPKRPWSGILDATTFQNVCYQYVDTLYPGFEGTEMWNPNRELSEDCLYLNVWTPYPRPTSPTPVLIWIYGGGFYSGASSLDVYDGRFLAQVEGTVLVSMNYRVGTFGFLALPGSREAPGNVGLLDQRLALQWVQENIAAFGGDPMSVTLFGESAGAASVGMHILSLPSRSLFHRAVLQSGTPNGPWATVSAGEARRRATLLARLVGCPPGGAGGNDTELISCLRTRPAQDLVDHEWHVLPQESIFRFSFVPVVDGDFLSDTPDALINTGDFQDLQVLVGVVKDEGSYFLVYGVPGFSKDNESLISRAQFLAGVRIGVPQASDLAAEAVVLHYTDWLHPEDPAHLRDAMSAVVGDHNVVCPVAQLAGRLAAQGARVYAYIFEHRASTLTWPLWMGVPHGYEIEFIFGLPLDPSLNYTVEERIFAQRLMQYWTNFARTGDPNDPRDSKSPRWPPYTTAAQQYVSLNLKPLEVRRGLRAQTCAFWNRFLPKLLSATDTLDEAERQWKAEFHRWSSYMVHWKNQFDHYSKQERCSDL
Protocol: Male Wistar rats weighing 230–250 g were used. AChE activity was assessed using a colorimetric reported method with minor modifications. Hippocampal tissue was homogenized in 39 volumes of 75 mM sodium phosphate buffer (pH 7.4). A mixture of 2 mL containing the compounds assessed, acetylthiocholine iodide, and 50 μL tissue homogenate was incubated for 8 min. […] The extent of color production was measured spectrophometrically at 420 nm using Ultospec 3000 (Pharmacia Biotech, Piscataway, NJ, USA). All samples were assayed in triplicate. Results were expressed as percentages of control values.
Different concentrations of the compounds were tested for their ability to inhibit AChE activity.

[1] = for Pe: pig, PAMPA
in vitro = conditions: PAMPA
[2] = tested on: K+-evoked [3H]ACh efflux in rat hippocampal slices; test: In vitro ACh release, K+-evoked [3H]ACh efflux; assay type: cell-based
Protocol: Male Wistar rats weighing 230–250 g were used. K^+-evoked [^3H]ACh efflux was measured as previously described [39]. Briefly, the hippocampus was removed and dissected, cut sagittally into 500 µm slices using a McIlwain tissue chopper (The Mickle Laboratory Engineering Co. Ltd., Dorking, UK). […] Fractions were collected at 3-min intervals for a total of 60 min. At 12 min (S1) and 45 min (S2) after equilibration, the slices were depolarized by changing the superfusion fluid during 6 min to a solution containing 20 mM KCl. Drugs were added 15 min before S2. Tritium content was assayed by liquid scintillation spectroscopy. S1 and S2 were calculated as K+-stimulated tritium increases over basal efflux. Results were expressed as the S2/S1 ratio.

SMILES	inhibition at 1 µM (AChE) [%]	PAMPA-BBB Classification [1]	Pe [1]	Papp (in vitro) [×10⁻⁶ cm/s]	AChE activity inhibition (in words) (AChE; 0.01–10 µM, in vitro)	IC50 (AChE; estimated from non-linear fitted dose-response curves, 0.01–10 µM) [µM]	K+-evoked [3H]ACh efflux [2]	Pe ([1]; 20 h, 500 µg/mL)	Papp at 20 h, 500 µg/mL (in vitro) [×10⁻⁶ cm/s]
NS(=O)(=O)c1ccc(OCCCN2CCOCC2)cc1 [Compound 3]	< 5	–	–	–	–	–	–	–	–
O=C(Nc1cccc2ccccc12)NS(=O)(=O)c1ccc(OCCCN2CCCC2)cc1 [Compound 5]	25.2 ± 7.7	–	–	–	–	–	–	–	–
CN(C)c1ccc(NC(=O)NS(=O)(=O)c2ccc(OCCCN3CCCC3)cc2)cc1 [Compound 6]	29.9 ± 3.63	CNS − (key: CNS +/−: BBB permeation uncertain: Pe (10^−6 cm/s) from 4.0 to 2.0; CNS −: low BBB permeation predicted: Pe (10^−6 cm/s < 2.0)	0.32	0.32 ± 0.01	–	–	–	–	–
O=C(NC(c1ccccc1)c1ccccc1)NS(=O)(=O)c1ccc(OCCCN2CCCC2)cc1 [Compound 7]	> 37	CNS − (key: CNS +/−: BBB permeation uncertain: Pe (10^−6 cm/s) from 4.0 to 2.0; CNS −: low BBB permeation predicted: Pe (10^−6 cm/s < 2.0)	–	–	significantly inhibit AChE activity in a concentration-dependent manner	> 10	able to increase ACh release in vitro	0.47	0.47 ± 0.06
